Test results from patent publication US4923885A, “5-amino-1-(4-naphthoylbenzyl)-1,2,3-triazole-4-carboxamides and analogs as antiproliferative agents” (Merck & Co., Inc., priority 1988, dated 1990).
≈ marks a conversion by molar mass, not a printed value.

Key:
[1] = system: Normal Human Epidermal Keratinocytes (NHEK); assay: Proliferation assay vs Normal Human Epidermal Keratinocytes (NHEK growth inhibition); type: cell-based; details: Dulbecco's modified Eagle's medium, 10% fetal calf serum, 37° C., 5% CO2, Giemsa, 650 nm, read-out: ED50 NHEK
Description: In these experiments, NHEK's were cultured in Dulbecco's modified Eagle's medium with 10% fetal calf serum at 37° C., 5% CO2. Each well of a 96 well plate was seeded with 2000 cells in 200 μl of each drug dilution in duplicate. A plate was stopped and fixed for each time point, stained with Giemsa and then read in a Titertek plate reader at 650 nm, and the absorbances were calibrated with known cell numbers on control plates. NHEK's were obtained from Clonetics Corporation at the secondary stage.

[2] = system: nucleotide biosynthesis in normal human epidermal keratinocyte cells; assay: inhibition of nucleotide biosynthesis in normal human epidermal keratinocyte cells in vitro; type: cell-based; parameters: dose or concentration left out as unconfirmed
From the text: It has been known that it is the hyperproliferation of these cells in humans which causes psoriasis.

[3] = cited from earlier work; for side effects: psoriasis treatment; for clearing lesions: psoriasis, experimental use as chemotherapeutic agents; for effectiveness in treating psoriasis: inhibitors of purine or pyrimidine nucleotide biosynthesis

SMILES	IC50 [1]	side effects [3]	effectiveness in treating psoriasis [3]	also measured
NC(=O)c1nnn(Cc2cc(Cl)c(Cc3ccc(Cl)c4ccccc34)c(Cl)c2)c1N [Cl, Cl, CH2, α-Naphth-4-Cl, 5-Amino-l-[4-[(4-chloro-l-naphthalene)methyl]-3,5dichlorobenzyl]-1,2,3-triazole-4-carboxamide]	0.3 µg/mL (≈ 0.651 µM)			
NC(=O)c1nnn(Cc2cc(Cl)c(C(=O)c3cccc4ccccc34)c(Cl)c2)c1N [Cl, Cl, CO, α-Naphth, 5-Amino-l-[4-(l-naphthoyl)-3,5-dichlorobenzyl]-l,2,3-triazole-4-carboxamide]	0.3 µg/mL (≈ 0.681 µM)			
NC(=O)c1nnn(Cc2cc(Cl)c(C(=O)c3ccc4ccccc4c3)c(Cl)c2)c1N [Cl, Cl, CO, β-Naphth, 5-Amino-1-[4-(2-naphthoyl)-3,5-dichlorobenzyl]-1,2,3-triazole-4-carboxamide]	1 µg/mL (≈ 2.27 µM)			
NC(=O)c1nnn(Cc2cc(Cl)c(Oc3ccc(Cl)c4ccccc34)c(Cl)c2)c1N [Cl, Cl, O, α-Naphth-4-Cl, 5-Amino-l-[4-[(4-chloro-l-naphthalene)oxy]-3,5dichlorobenzyl]-1,2,3-triazole-4-carboxamide]	0.3 µg/mL (≈ 0.648 µM)			
NC(=O)c1nnn(Cc2cc(Cl)c(C(=O)c3ccc(Cl)c4ccccc34)c(Cl)c2)c1N [Compound A, 5-amino-l-(4-(4-chloronaphthoyl)-3,5-dichlorobenzyl)-1,2,3-triazole-4-carboxamide]	0.08 µg/mL (≈ 0.169 µM)			efficacy in inhibiting nucleotide biosynthesis [2]: inhibiting nucleotide biosynthesis
COc1c(C)c2c(c(O)c1C/C=C(\C)CCC(=O)O)C(=O)OC2 [Mycophenolic acid]		unacceptable side effects		effect on psoriasis ([3]; mycophenolic acid given orally): controls psoriasis by causing remission; clearing lesions [3]: success in clearing lesions
O=C(O)C[C@H](NC(=O)CP(=O)(O)O)C(=O)O [N-phosphonacetyl-L-aspartate]		unacceptable side effects due to toxicity	effective in treating the disease	
NC(=O)c1nnn(Cc2cc(Cl)c(C(=O)c3ccc(Cl)cc3)c(Cl)c2)c1N [Reference compound]	0.5 to 1 µg/mL (≈ 1.18 to 2.35 µM)			
O=c1[nH]cc(F)c(=O)[nH]1 [fluorouracil]		unacceptable side effects due to toxicity	effective in treating the disease	
CN(Cc1cnc2nc(N)nc(N)c2n1)c1ccc(C(=O)N[C@@H](CCC(=O)O)C(=O)O)cc1 [methotrexate]		unacceptable side effects due to toxicity	effective in treating the disease	
Nc1nc2nc[nH]c2c(=S)[nH]1 [thioguanine]		unacceptable side effects due to toxicity	effective in treating the disease	clearing lesions [3]: success in clearing lesions
